For data set [1], the target named is T1, purified recombinant Cdc25-C enzyme (MBP-Cdc25C protein) (Homo sapiens, UniProt P30307).
T1 construct: made in house
T1 sequence (P30307 1-473): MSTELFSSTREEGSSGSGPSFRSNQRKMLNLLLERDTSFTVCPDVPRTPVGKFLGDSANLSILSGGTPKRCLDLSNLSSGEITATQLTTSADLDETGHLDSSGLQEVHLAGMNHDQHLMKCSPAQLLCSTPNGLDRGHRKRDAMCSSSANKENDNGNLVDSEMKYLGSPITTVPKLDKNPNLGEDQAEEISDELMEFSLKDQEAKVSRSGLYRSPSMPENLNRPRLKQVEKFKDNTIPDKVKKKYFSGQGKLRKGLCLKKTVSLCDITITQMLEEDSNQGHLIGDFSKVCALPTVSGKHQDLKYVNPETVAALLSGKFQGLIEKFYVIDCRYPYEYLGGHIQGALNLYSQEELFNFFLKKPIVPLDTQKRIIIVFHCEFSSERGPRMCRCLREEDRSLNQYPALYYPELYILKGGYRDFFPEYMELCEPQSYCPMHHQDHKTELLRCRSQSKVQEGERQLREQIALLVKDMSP
Description: Phosphatase activity of the purified recombinant Cdc25C enzyme (OMFP dephosphorylation, fluorescence). Type of data set: biochemical. The following applies: OMFP 500 μM, 4 hours at 30° C. The method, boiled down: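 MBP-Cdc25C fusion protein in 50 mM Tris-HCl pH 8.2, 50 mM NaCl, 1 mM DTT, 20% glycerol; reaction started with 500 μM OMFP (final). Compounds tested at decreasing concentrations from 40 μM; 4 h at 30 °C, OMF fluorescence read at 475 nm. IC50 from three independent experiments by linear regression over the linear part of the sigmoid.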

Data set [2] relates to DU145 (human prostate cancer cells). Description: Anti-proliferative activity on DU-145 cell line (WST1 colorimetric test). Conditions: DU-145, 96 h, 96 hours treatment, read-out: IC50 on the proliferation of the DU-145 cell line. Type of data set: cell-based. The method, then: (§1) By way of an example, the effect of treating two human cell lines Mia-Paca2 and DU145 with the compounds of the examples described hereinbefore will be studied. The cell lines DU145 (human prostate cancer cells) and Mia-PaCa2 (human pancreas cancer cells) were obtained from the American Tissue Culture Collection (Rockville, Md., USA). A 96-well plate was inoculated on day 0 with cells placed in 80 μl of Dulbecco's modified Eagle's medium (Gibco-Brl, Cergy-Pontoise, France) with 10% heat-inactivated foetal calf serum (Gibco-Brl, Cergy-Pontoise, France), 50000 units/1 of penicillin and 50 mg/l of streptomycin (Gibco-Brl, Cergy-Pontoise, France), and 2 mM of glutamine (Gibco-Brl, Cergy-Pontoise, France). The cells were treated on day 1 with increasing concentrations of each test compound up to 10 μM for 96 hours. At the end of this period, cell proliferation is quantified by means of a colorimetric test based on cleavage of the tetrazolium salt WST1 by the mitochondrial dehydrogenases in the viable cells, resulting in formation of formazan (Boehringer Mannheim, Meylan, France). These tests are performed in duplicate with 8 determinations per concentration tested. For each compound to be tested, the values within the linear part of the sigmoid curve were subjected to linear regression analysis and used to estimate the IC50 inhibitory concentration. The products are solubilised in dimethylsulfoxide (DMSO) at a concentration of 10^−2 M and used in culture with a final DMSO concentration of 0.1%.

Data set [3] deals with Mia-PaCa2 (human pancreas cancer cells). Briefly: Anti-proliferative activity on Mia-Paca2 cell line (WST1 colorimetric test). The class given is cell-based. Conditions: MIA PaCa-2, 96 h, 96 hours treatment, read-out: IC50 on proliferation of the Mia-Paca2 cell line. The method, then: as §1

Each structure is given as a SMILES string.

`CN(CCNC(=S)NCc1ccc(F)cc1)CCNc1cc(N2CCCC2)nc(N2CCCC2)n1` [Example 46, N-{2-[{2-[(2,6-dipyrrolidin-1-ylpyrimidin-4-yl)amino]ethyl}(methyl)amino]ethyl}-N′-(4-fluorobenzyl)thiourea] displayed a melting point of 64 to 66 °C. In data set [1], the IC50 was at most 1 µM. For the same compound, in data set [2], the IC50 was at most 5 µM. In addition, in data set [3], the IC50 was at most 5 µM.
In the case of `CN(CCNc1cc(N2CCCC2)nc(N2CCCC2)n1)CCNS(=O)(=O)c1cccc(C(F)(F)F)c1` [Example 88, N-{2-[{2-[(2,6-dipyrrolidin-1-ylpyrimidin-4-yl)amino]ethyl}(methyl)amino]ethyl}-3-(trifluoromethyl)benzenesulfonamide], the melting point fell in the range of 203 to 205 °C. For the same compound, in data set [1], the IC50 is at most 5 µM. In data set [2], the IC50 was at most 5 µM. Further, in data set [3], the IC50 was at most 5 µM.
The compound `CN(CCNC(=S)Nc1ccccc1F)CCNc1cc(N2CCCC2)nc(N2CCCC2)n1` [Example 42, N-{2-[{2-[(2,6-dipyrrolidin-1-ylpyrimidin-4-yl)amino]ethyl}(methyl)amino]ethyl}-N′-(2-fluorophenyl)thiourea] displayed a melting point of 105 to 107 °C. Also, the IC50 in data set [1] was at most 5 µM. In data set [2], the IC50 is at most 5 µM. For the same compound, in data set [3], the IC50 was at most 5 µM.
For the compound `CN(CCNC(=S)Nc1ccc(S(=O)(=O)Nc2ccccc2)cc1)CCNc1cc(N2CCCC2)nc(N2CCCC2)n1` [Example 62, 4-{[({2-[{2-[(2,6-dipyrrolidin-1-ylpyrimidin-4-yl)amino]ethyl}(methyl)amino]ethyl}amino)carbonothioyl]amino}-N-phenylbenzenesulfonamide], the melting point is 146 to 148 °C. In addition, in data set [1], the IC50 is at most 1 µM. For the same compound, the IC50 in data set [2] is at most 5 µM. The IC50 in data set [3] is at most 5 µM.
For the compound `CN(CCCNC(=O)Nc1ccc(Cl)c(C(F)(F)F)c1)CCCNc1cc(N2CCCC2)nc(N2CCCC2)n1` [Example 21, N-[4-chloro-3-(trifluoromethyl)phenyl]-N′-{3-[{3-[(2,6-dipyrrolidin-1-ylpyrimidin-4-yl)amino]propyl}(methyl)amino]propyl}urea], the IC50 in data set [1], in data set [2] and in data set [3] was at most 5 µM in each case.
With `CN(CCNC(=O)Nc1cccc2nsnc12)CCNc1cc(N2CCCC2)nc(N2CCCC2)n1` [Example 15, N-2,1,3-benzothiadiazol-4-yl-N′-{2-[{2-[(2,6-dipyrrolidin-1-ylpyrimidin-4-yl)amino]ethyl}(methyl)amino]ethyl}urea], the melting point is 126 to 128 °C. Besides, the IC50 in data set [1] was at most 1 µM. For the same compound, the IC50 in data set [2] is at most 5 µM. The IC50 in data set [3] was at most 5 µM.
`CN(CCNC(=S)Nc1ccc(-n2cccn2)cc1)CCNc1cc(N2CCCC2)nc(N2CCCC2)n1` [Example 48, N-{2-[{2-[(2,6-dipyrrolidin-1-ylpyrimidin-4-yl)amino]ethyl}(methyl)amino]ethyl}-N′-[4-(1H-pyrazol-1-yl)phenyl]thiourea] showed a melting point of 116 to 118 °C. Moreover, in data set [1], the IC50 is at most 5 µM. The IC50 in data set [2] was at most 5 µM. Also, the IC50 in data set [3] is at most 5 µM.
Take `CN(CCNC(=S)Nc1ccc(Cl)nc1)CCNc1cc(N2CCCC2)nc(N2CCCC2)n1` [Example 53, N-(6-chloropyridin-3-yl)-N′-{2-[{2-[(2,6-dipyrrolidin-1-ylpyrimidin-4-yl)amino]ethyl}(methyl)amino]ethyl}thiourea]: the melting point fell in the range of 96 to 98 °C. Besides, in data set [1], the IC50 was at most 1 µM. The IC50 in data set [2] was at most 5 µM. In addition, the IC50 in data set [3] is at most 5 µM.
In turn, `CN(CCNC(=S)Nc1ccc(S(=O)(=O)N2CCCCC2)cc1)CCNc1cc(N2CCCC2)nc(N2CCCC2)n1` [Example 27, N-{2-[{2-[(2,6-dipyrrolidin-1-ylpyrimidin-4-yl)amino]ethyl}(methyl)amino]ethyl}-N′-[4-(piperidin-1-ylsulfonyl)phenyl]thiourea] returned a melting point of 120 to 122 °C. For the same compound, the IC50 in data set [1] is at most 5 µM. The IC50 in data set [2] is at most 5 µM. Also, in data set [3], the IC50 was at most 5 µM.
Regarding `CN(CCNc1cc(N2CCCC2)nc(N2CCCC2)n1)CCNS(=O)(=O)c1ccc([N+](=O)[O-])cc1` [Example 87, N-{2-[{2-[(2,6-dipyrrolidin-1-ylpyrimidin-4-yl)amino]ethyl}(methyl)amino]ethyl}-4-nitrobenzenesulfonamide], the melting point was 144 to 145 °C. For the same compound, the IC50 in data set [1] was at most 1 µM. The IC50 in data set [3] was at most 5 µM.
`CN(CCNC(=S)Nc1ccc(S(=O)(=O)c2ccc(Br)cc2)cc1)CCNc1cc(N2CCCC2)nc(N2CCCC2)n1` [Example 60, N-{4-[(4-bromophenyl)sulfonyl]phenyl}-N′-{2-[{2-[(2,6-dipyrrolidin-1-ylpyrimidin-4-yl)amino]ethyl}(methyl)amino]ethyl}thiourea] registered a melting point of 118 to 120 °C. Further, in data set [1], the IC50 was at most 1 µM. For the same compound, in data set [2], the IC50 was at most 5 µM. Further, the IC50 in data set [3] was at most 5 µM.
The compound `O=C(NCCCCCNc1cc(N2CCCC2)nc(N2CCCC2)n1)Nc1ccc(Cl)cc1` [Example 19, N-(4-chlorophenyl)-N′-{5-[(2,6-dipyrrolidin-1-ylpyrimidin-4-yl)amino]pentyl}urea] came in with a melting point of 192 to 193 °C. Also, the IC50 in data set [1] was at most 1 µM. The IC50 in data set [2] is at most 5 µM. Moreover, the IC50 in data set [3] was at most 5 µM.
In turn, `CN(CCNC(=S)Nc1cccnc1Oc1ccc(F)cc1F)CCNc1cc(N2CCCC2)nc(N2CCCC2)n1` [Example 47, N-[2-(2,4-difluorophenoxy)pyridin-3-yl]-N′-{2-[{2-[(2,6-dipyrrolidin-1-ylpyrimidin-4-yl)amino]ethyl}(methyl)amino]ethyl}thiourea] came in with a melting point of 108 to 110 °C. For the same compound, in data set [1], the IC50 is at most 1 µM. In addition, the IC50 in data set [2] was at most 5 µM. Besides, the IC50 in data set [3] is at most 5 µM.
`CN(CCNC(=S)Nc1ccc(N(C)C)cc1)CCNc1cc(N2CCCC2)nc(N2CCCC2)n1` [Example 76, N-[4-(dimethylamino)phenyl]-N′-{2-[{2-[(2,6-dipyrrolidin-1-ylpyrimidin-4-yl)amino]ethyl}(methyl)amino]ethyl}thiourea] showed a melting point of 127 to 129 °C. Moreover, the IC50 in data set [2] is at most 5 µM. Also, in data set [3], the IC50 is at most 5 µM.
Compound `CN(CCNC(=S)Nc1ccc(Cl)cc1)CCNc1cc(N2CCC2)nc(N2CCC2)n1` [Example 75, N-(4-chlorophenyl)-N′-{2-[{2-[(2,6-diazetidin-1-ylpyrimidin-4-yl)amino]ethyl}(methyl)amino]ethyl}thiourea] showed a melting point of 146 to 148 °C. The IC50 in data set [2] is at most 5 µM. Also, the IC50 in data set [3] was at most 5 µM.
As to `CN(CCNC(=O)Nc1ccc(Cl)cc1)CCNc1cc(N2CCCC2)nc(N2CCCC2)n1` [Example 16, N-(4-chlorophenyl)-N′-{2-[{2-[(2,6-dipyrrolidin-1-ylpyrimidin-4-yl)amino]ethyl}(methyl)amino]ethyl}urea], the melting point was 71 to 73 °C. The IC50 in data set [1] was at most 1 µM. Also, the IC50 in data set [2] is at most 5 µM. Besides, in data set [3], the IC50 was at most 5 µM.
`CN(CCNC(=S)NCc1ccco1)CCNc1cc(N2CCCC2)nc(N2CCCC2)n1` [Example 29, N-{2-[{2-[(2,6-dipyrrolidin-1-ylpyrimidin-4-yl)amino]ethyl}(methyl)amino]ethyl}-N′-(2-furylmethyl)thiourea]: the IC50 in data set [1], in data set [2] and in data set [3] was at most 5 µM each time.
Regarding `CN(CCNC(=O)C1CCN(c2nccc(C(F)(F)F)n2)CC1)CCNc1cc(N2CCCC2)nc(N2CCCC2)n1` [Example 86, N-{2-[{2-[(2,6-dipyrrolidin-1-ylpyrimidin-4-yl)amino]ethyl}(methyl)amino]ethyl}-1-[4-(trifluoromethyl)pyrimidin-2-yl]piperidine-4-carboxamide], the melting point fell in the range of 171 to 173 °C. Also, the IC50 in data set [1] was at most 5 µM. Moreover, the IC50 in data set [3] was at most 5 µM.

The record behind these values is patent publication US20100137275A1 (IPSEN PHARMA S.A.S., priority 2007, published 2010).
